Experimental data taken from patent EP1379135B1, “FORMULATIONS COMPRISING ENTRAPPED ACTIVE INGREDIENTS AND USES THEREOF” (THE SCRIPPS RESEARCH INSTITUTE, priority 2001, dated 2002).
“Also recorded” adds a separate entry of the source.

Assays:
[1] = system: COX-2 protein; test: COX-2 protein expression in IL-1β stimulated chondrocytes (Western Immunoblot); format: cell-based, human
Protocol: (§1) Whole cell extracts were prepared from 3 x 10^6 chondrocytes stimulated as described above by lysing the cells on the plate with ice cold lysis buffer (10 mM TrisHCl pH 7.6, 158 mM NaCl, 1 mM EDTA, 0.1% SDS, 1% Triton X-100, leupeptin […], aprotinin 1µg/ml, and 0.5 mM PMSF), which was added immediately before use. The lysates were transferred to Eppendorf tubes and centrifuged at 20,000 g for 30 min at 4 °C. The supernatants were transferred into fresh tubes, and the protein concentration was determined by Bradford assay. Similar amounts of protein were separated by 10% SDS PAGE and transferred to a nitrocellulose filter (Schleicher & Schuell, Keene, NH) by electroblotting. The filter was blocked overnight in 5% milk powder/TBS-T solution and then further incubated with one of the following antibodies: anti-iNOS (C-19, Santa Cruz Biotechnology, Inc., Santa Cruz, CA), anti-COX-2 (Cayman Chemical, Ann Arbor, MI), anti-COX-1 (H-3, Santa Cruz Biotechnology, Inc.), anti-phospho-JNK (phosphoThr 183 /Tyr 185, New England Biolabs, Inc., Beverly, MA), anti-phospho-p38MAP (phospho-Thr […]/Tyr 182, New England Biolabs, Inc.) or anti-phospho-ERK (phosphoThr 180/Tyr 182, New England Biolabs, Inc.) for 2 hrs. […]

[2] = system: chondrocytes; test: Cell viability, MTT assay; format: cell-based, human; settings: up to 20 mM
[3] = system: p38; test: IL-1β induced MAP kinase activation, p38 (phospho Western blot); format: cell-based, human; settings: induced by IL-1β
Protocol: as §1

[4] = system: bradykinin-induced pain; test: Bradykinin-induced pain after intra-articular administration (walking behavior pain score); format: in vivo; settings: Wistar rats, Figure 7
Protocol: The purpose of this study was to investigate the analgesic effects of GlcNAc with or without liposomal formulations, injected intra-articularly into the joint of Wistar rats. Pain was induced by intra-articular administration of bradykinin. Adult male Wistar rats with a weight range from 220g to 250g were obtained from Laboratory Animals Centre, National University of Singapore. Bradykinin and GlcNAc were obtained from Sigma. The liposomes were prepared as described above. 50 µl of GlcNAc solution or an GIcNAc formulated liposome suspension was injected into a rat joint cavity. An equal volume of saline was given intra-articularly as a control. 50 µl of bradykinin (60 µg/ml or at the indicated concentration) was given intra-articularly at different time points following the administration of GlcNAc. Changes in walking behavior caused by intra-articular injection of bradykinin were used to define induced pain criteria in rats. The methods used to observe the pain response are defined in Table 2. The degree of pain was assigned a score according to the criteria in Table 3. Table 2 [table] [table]

[5] = system: IL-6; test: IL-6 production in IL-1β stimulated chondrocytes (ELISA); format: cell-based, human; settings: p < 0.001
Protocol: Chondrocytes were plated at 40,000 cells/well in 96-well plates in the presence of 1 % FBS. After 48 h, the medium was changed, and the cells were stimulated with IL-1β (Sigma) at a concentration of 5 ng/ml for 24 h. NO production was detected as NO2 accumulation in the culture supernatants by the Griess reaction as described elsewhere (Heval et al., (1994) Methods Enzymol. 233:250). IL-6 in the culture supernatants was measured by ELISA (R&D Systems, Minneapolis, MN) in accordance with the supplier's protocol.

[6] = system: NF-κB; test: IL-1β-induced nuclear translocation of NF-κB (gel shift of nuclear extracts); format: cell-based, human
Protocol: Nuclear protein extracts were prepared as follows: 2 x 10^6 chondrocytes were stimulated as indicated. The cells were harvested by trypsinization, washed once with ice cold PBS and lysed in 10 mM Tris-HCl buffer pH 7.5 containing 2 mM MgCl2, 140 mM NaCl, 0.5 mM DTT, 0.05% Triton X-100, 0.5 mM PMSF, leupeptin 1 µg/ml and aprotinin 1 µg/ml. The nuclei were spun down, resuspended in 20 mM HEPES buffer pH 7.9, containing 25% glycerol, 420 mM NaCl, 1.5 mM MgCl2, 0.2 mM EDTA, 0.5 mM DTT, 0.5 mM PMSF, leupeptin 1 µg/ml and aprotinin 1 µg/ml, and rotated at 4°C for 30 minutes. After removal of the nuclear debris by centrifugation, the protein concentration of the lysate was determined by Bradford assay. Equal amounts of the nuclear extracts (2 µg) were incubated for 15 minutes at room temperature with poly-(dI-dC)poly-(dI-dC) (0.1 mg/ml), BSA (1 mg/ml), 1 x […] counts of double-stranded radiolabeled oligodeoxynucleotide containing the NF-κB consensus DNA binding site (sequence: 5'-[…]-3') in 20 mM HEPES buffer pH 7.9 containing 10% glycerol, 420 mM NaCl, 1.5 mM MgCl2, 0.2 mM EDTA, 0.5 mM DTT and 0.5 mM PMSF. For competition experiments, unlabeled NF-κB oligodeoxynucleotide or oligodeoxynucleotide containing the Oct-1 consensus sequence were added at 100-fold molar excess to the binding reactions 10 minutes prior to the addition of radiolabeled NFκB oligodeoxynucleotide. […]

[7] = system: JNK; test: IL-1β induced MAP kinase activation, JNK (phospho Western blot); format: cell-based, human; settings: induced by IL-1β
Protocol: as §1

[8] = system: TNFα induced nitric oxide (NO) production in normal human articular chondrocytes; test: TNFα induced NO production in chondrocytes; format: cell-based
[9] = system: ERK; test: IL-1β induced MAP kinase activation, ERK (phospho Western blot); format: cell-based, human; settings: induced by IL-1β
Protocol: as §1

[10] = Induction of TGFα1 in chondrocytes with IL-1β; format: cell-based, human; settings: together with IL-1β
[11] = system: hexosaminidase; test: IL-1β mediated increase in hexosaminidase secretion in chondrocytes; format: cell-based, human

CC(=O)N[C@H]1C(O)O[C@H](CO)[C@@H](O)[C@@H]1O (some centres unmarked) [GlcNAc, N-acetylglucosamine]
expression of COX-2 protein [1]: inhibited
cell viability [2]: Neither GA nor GlcNAc at dosages up to 20 mM affected cell viability
p38 MAP kinase activation [3]: does not inhibit
analgesic effects on bradykinin-induced pain (pain scores) [4]: small, but statistically insignificantly, analgesic effects; also recorded: small, but statistically insignificant, analgesic effects
IL-6 production [5]: inhibited
IL-1β-induced nuclear translocation of NF-κB [6]: did not affect
JNK MAP kinase activation [7]: does not inhibit
TNFα induced nitric oxide (NO) production [8]: inhibit
ERK MAP kinase activation [9]: does not inhibit
induction of TGFα1 [10]: synergistic with IL-1β
IL-1β mediated increase in hexosaminidase secretion [11]: did not suppress
